Laboratory results as given in patent US8334315B2, “Substituted aromatic carboxamide and urea derivatives as vanilloid receptor ligands” (Gruenenthal GmbH, priority 2009, dated 2012).

target: T1, hVR1 (Homo sapiens, UniProt Q8NER1); test: Functional test on VR1, FLIPR Ca2+ influx in transfected CHO K1 cells, capsaicin; assay type: cell-based, human being; design: key to Ki (human being) [nM] Cap: agonist / partial agonist / no effect: AG=agonist; pAG=partial agonist; NE=no effect; conditions: not given
T1 construct: expressed in transfected cells; host or cells: CHO K1 cells (ECACC), stably transfected
T1 sequence (Q8NER1 whole entry): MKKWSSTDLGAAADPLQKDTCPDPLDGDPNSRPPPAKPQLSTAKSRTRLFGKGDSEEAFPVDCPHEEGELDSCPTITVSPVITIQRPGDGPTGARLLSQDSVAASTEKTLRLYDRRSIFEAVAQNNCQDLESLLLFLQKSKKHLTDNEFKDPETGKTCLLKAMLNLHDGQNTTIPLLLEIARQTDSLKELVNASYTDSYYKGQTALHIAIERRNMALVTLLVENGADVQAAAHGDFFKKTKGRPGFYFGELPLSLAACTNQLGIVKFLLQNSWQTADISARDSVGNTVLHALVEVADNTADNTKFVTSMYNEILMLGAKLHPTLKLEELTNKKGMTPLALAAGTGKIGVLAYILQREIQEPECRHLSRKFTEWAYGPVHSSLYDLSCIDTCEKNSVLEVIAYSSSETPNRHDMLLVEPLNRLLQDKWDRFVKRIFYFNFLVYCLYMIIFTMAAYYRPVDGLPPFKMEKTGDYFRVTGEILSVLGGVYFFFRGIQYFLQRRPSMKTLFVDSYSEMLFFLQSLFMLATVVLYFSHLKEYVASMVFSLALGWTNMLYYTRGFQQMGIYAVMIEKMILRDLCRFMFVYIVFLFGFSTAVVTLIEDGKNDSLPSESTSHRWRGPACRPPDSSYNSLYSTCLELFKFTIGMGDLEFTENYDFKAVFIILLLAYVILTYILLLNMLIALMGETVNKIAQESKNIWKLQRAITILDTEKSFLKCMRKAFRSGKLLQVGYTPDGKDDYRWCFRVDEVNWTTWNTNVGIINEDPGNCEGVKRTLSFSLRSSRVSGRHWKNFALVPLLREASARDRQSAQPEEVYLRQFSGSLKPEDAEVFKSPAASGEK
Description: In the process, the Ca^2+ influx is quantified in the FLIPR assay with the aid of a Ca^2+-sensitive dye (type Fluo-4, Molecular Probes Europe BV, Leiden, the Netherlands) in a fluorescent imaging plate reader (FLIPR, Molecular Devices, Sunnyvale, USA), as described hereinafter.
II. Functional Tests Carried Out on the Vanilloid Receptor (VR1)
The agonistic or antagonistic effect of the substances to be tested on the vanilloid receptor 1 (VR1) can also be determined using the following assay. In this assay, the influx of Ca^2+ through the channel is quantified with the aid of a Ca^2+-sensitive dye (type Fluo-4, Molecular Probes Europe BV, Leiden, the Netherlands) in a fluorescent imaging plate reader (FLIPR, Molecular Devices, Sunnyvale, USA).
Chinese hamster ovary cells (CHO K1 cells, European Collection of Cell Cultures (ECACC) United Kingdom) are stably transfected with the VR1 gene. For functional testing, these cells are plated out on poly-D-lysine-coated black 96-well plates having a clear base (BD Biosciences, Heidelberg, Germany) at a density of 25,000 cells/well. The cells are incubated overnight at 37° C. and 5% CO2 in a culture medium (Ham's F12 nutrient mixture, 10% by volume of FCS (foetal calf serum), 18 μg/ml of L-proline). The next day the cells are incubated with Fluo-4 (Fluo-4 2 μM, 0.01% by volume of Pluronic F127, Molecular Probes in HBSS (Hank's buffered saline solution), Gibco Invitrogen GmbH, Karlsruhe, Germany) for 30 minutes at 37° C. Subsequently, the plates are washed three times with HBSS buffer and after further incubation for 15 minutes at RT used for Ca^2+ measurement in a FLIPR assay. The Ca^2+-dependent fluorescence is measured before and after the addition of the substances to be tested (λex wavelength=488 nm, λem=540 nm). Quantification is carried out by measuring the highest fluorescence intensity (FC, fluorescence counts) over time.
The FLIPR protocol consists of 2 substance additions. First the compounds to be tested (10 μM) are pipetted onto the cells and the Ca^2+ influx is compared with the control (capsaicin 10 μM) (% activation based on the Ca^2+ signal after the addition of 10 μM of capsaicin). After 5 minutes' incubation, 100 nM of capsaicin are applied and the Ca^2+ influx is also determined.
Desensitising agonists and antagonists led to suppression of the Ca^2+ influx. The % inhibition is calculated compared to the maximum achievable inhibition with 10 μM of capsaicin.
Starting from the percentage displacement caused by different concentrations of the compounds to be tested of general formula I, IC50 inhibitory concentrations which cause a 50-per cent displacement of capsaicin were calculated. Ki values for the test substances were obtained by conversion by means of the Cheng-Prusoff equation (Cheng, Prusoff; Biochem. Pharmacol. 22, 3099-3108, 1973).
The affinity of the compounds according to the invention for the vanilloid receptor 1 (VR1/TRPV1 receptor) was determined as described hereinbefore (pharmacological methods I and II respectively).

Ki (human being) [nM] Cap: agonist / partial agonist / no effect | SMILES
pAG | CC(C(=O)NCc1cc(C(F)(F)F)nn1-c1cccc(Cl)c1)c1ccc2c(cnn2S(C)(=O)=O)c1 (stereo not drawn) [Example 191, N-((1-(3-chlorophenyl)-3-(trifluoromethyl)-1H-pyrazol-5-yl)methyl)-2-(1-(methylsulfonyl)-1H-indazol-5-yl)propanamide]
AG | CC(C)(C)c1cc(CNC(=O)Nc2ccc3c(c2)OC(F)(F)O3)n(-c2cccc(Cl)c2)n1 [Example 187, 1-((3-tert-butyl-1-(3-chlorophenyl)-1H-pyrazol-5-yl)methyl)-3-(2,2-difluorobenzo[d][1,3]dioxol-5-yl)urea]
pAG | CC(C(=O)NCc1cc(C(F)(F)F)nn1-c1cccc(Cl)c1)c1cccc2c1CCC2=O (stereo not drawn) [Example 206, N-((1-(3-chlorophenyl)-3-(trifluoromethyl)-1H-pyrazol-5-yl)methyl)-2-(1-oxo-2,3-dihydro-1H-inden-4-yl)propanamide]
pAG | CC(C(=O)NCc1cc(C(F)(F)F)nn1-c1cccc(Cl)c1)c1ccc2nc(N)sc2c1 (stereo not drawn) [Example 43, 2-(2-aminobenzo[d]thiazol-6-yl)-N-((1-(3-chlorophenyl)-3-(trifluoromethyl)-1H-pyrazol-5-yl)methyl)propanamide]

same assay, conditions: capsaicin (Cap); includes values given in brackets after pAG; read-out: Ki (human being) [nM] Cap

Ki [nM] | SMILES
0.6 | CC(C(=O)NCc1cc(C(F)(F)F)nn1-c1cccc(Cl)c1)c1ccc2c(cnn2S(C)(=O)=O)c1 (stereo not drawn) [Example 191, N-((1-(3-chlorophenyl)-3-(trifluoromethyl)-1H-pyrazol-5-yl)methyl)-2-(1-(methylsulfonyl)-1H-indazol-5-yl)propanamide]
6.8 | CC(C(=O)NCc1cc(C(F)(F)F)nn1-c1cccc(Cl)c1)c1ccc(F)c2[nH]ncc12 (stereo not drawn) [Example 195, N-((1-(3-chlorophenyl)-3-(trifluoromethyl)-1H-pyrazol-5-yl)methyl)-2-(7-fluoro-1H-indazol-4-yl)propanamide]
0.5 | CC(C)(C)c1cc(CNC(=O)Nc2cccc3ccncc23)n(-c2cccc(Cl)c2)n1 [Example 108, 1-((3-tert-butyl-1-(3-chlorophenyl)-1H-pyrazol-5-yl)methyl)-3-(isoquinolin-8-yl)urea]
0.5 | CC(C(=O)NCc1cc(C(F)(F)F)nn1-c1cccc(Cl)c1)c1ccc2cccnc2c1 (stereo not drawn) [Example 72, N-((1-(3-chlorophenyl)-3-(trifluoromethyl)-1H-pyrazol-5-yl)methyl)-2-(quinolin-7-yl)propanamide]
8.4 | O=C(NCc1cc(C(F)(F)F)nn1-c1cccc(Cl)c1)Nc1cc(F)cc2[nH]ncc12 [Example 194, 1-((1-(3-chlorophenyl)-3-(trifluoromethyl)-1H-pyrazol-5-yl)methyl)-3-(6-fluoro-1H-indazol-4-yl)urea]
66.2 | CC(C(=O)NCc1cc(C(F)(F)F)nn1C1CCCCC1)c1ccc2c(c1)OCCO2 (stereo not drawn) [Example 184, N-((1-cyclohexyl-3-(trifluoromethyl)-1H-pyrazol-5-yl)methyl)-2-(2,3-dihydrobenzo[b][1,4]dioxin-6-yl)propanamide]
8.1 | CC(C(=O)NCc1cc(C(F)(F)F)nn1-c1cccc(Cl)c1)c1cccc2cn[nH]c12 (stereo not drawn) [Example 210, N-((1-(3-chlorophenyl)-3-(trifluoromethyl)-1H-pyrazol-5-yl)methyl)-2-(1H-indazol-7-yl)propanamide]
0.8 | O=C(NCc1cc(C(F)(F)F)nn1-c1cccc(Cl)c1)Nc1c(Cl)ccc2[nH]ncc12 [Example 205, 1-(5-chloro-1H-indazol-4-yl)-3-((1-(3-chlorophenyl)-3-(trifluoromethyl)-1H-pyrazol-5-yl)methyl)urea]
41.2 | CC(C(=O)NCc1cc(C(F)(F)F)nn1-c1cccc(Cl)c1)c1ccc2c(c1)CCC(C)(C)O2 (stereo not drawn) [Example 189, N-((1-(3-chlorophenyl)-3-(trifluoromethyl)-1H-pyrazol-5-yl)methyl)-2-(2,2-dimethylchroman-6-yl)propanamide]
17.1 | Cc1c(C(F)(F)F)nn(-c2cccc(Cl)c2)c1CNC(=O)C(C)c1ccc2c(c1)OCCO2 (stereo not drawn) [Example 200, N-((1-(3-chlorophenyl)-4-methyl-3-(trifluoromethyl)-1H-pyrazol-5-yl)methyl)-2-(2,3-dihydrobenzo[b][1,4]dioxin-6-yl)propanamide]
5.9 | CC(C)(C)c1cc(CNC(=O)Cc2ccc3c(c2)OCCO3)n(-c2cccc(Cl)c2)n1 [Example 188, N-((3-tert-butyl-1-(3-chlorophenyl)-1H-pyrazol-5-yl)methyl)-2-(2,3-dihydrobenzo[b][1,4]dioxin-6-yl)acetamide]
5.5 | CC(C(=O)NCc1cc(C(C)(C)C)nn1-c1cccc(Cl)c1)c1cccc2[nH]ccc12 (stereo not drawn) [Example 25, N-((3-tert-butyl-1-(3-chlorophenyl)-1H-pyrazol-5-yl)methyl)-2-(1H-indol-4-yl)propanamide]
32.8 | CC(C)(C)c1cc(CNC(=O)Nc2ccc3c(c2)CCC3)n(-c2cc(Cl)cc(Cl)c2)n1 [Example 182, 1-((3-tert-butyl-1-(3,5-dichlorophenyl)-1H-pyrazol-5-yl)methyl)-3-(2,3-dihydro-1H-inden-5-yl)urea]
5.8 | CC(C(=O)NCc1cc(C(F)(F)F)nn1-c1cccc(Cl)c1)c1cccc2c(F)cccc12 (stereo not drawn) [Example 197, N-((1-(3-chlorophenyl)-3-(trifluoromethyl)-1H-pyrazol-5-yl)methyl)-2-(5-fluoronaphthalen-1-yl)propanamide]
12.8 | CC(C(=O)NCc1cc(C(F)(F)F)nn1-c1cccc(Cl)c1)c1ccc2c(c1)C(=O)CC2 (stereo not drawn) [Example 6, N-((1-(3-chlorophenyl)-3-(trifluoromethyl)-1H-pyrazol-5-yl)methyl)-2-(3-oxo-2,3-dihydro-1H-inden-5-yl)propanamide]
35.9 | Cc1ccc(-n2nc(C(F)(F)F)cc2CNC(=O)Nc2ccc3c(c2)CCC3)cc1C [Example 181, 1-(2,3-dihydro-1H-inden-5-yl)-3-((1-(3,4-dimethylphenyl)-3-(trifluoromethyl)-1H-pyrazol-5-yl)methyl)urea]
70.2 | O=C(NCc1cc(C(F)(F)F)nn1-c1ccc(F)cc1)Nc1ccc2c(c1)CCC2 [Example 175, 1-(2,3-dihydro-1H-inden-5-yl)-3-((1-(4-fluorophenyl)-3-(trifluoromethyl)-1H-pyrazol-5-yl)methyl)urea]
30.4 | CC(C(=O)NCc1cc(C(F)(F)F)nn1-c1cccc(Cl)c1)c1ccc2c(c1)C=CC(C)(C)O2 (stereo not drawn) [Example 190, N-((1-(3-chlorophenyl)-3-(trifluoromethyl)-1H-pyrazol-5-yl)methyl)-2-(2,2-dimethyl-2H-chromen-6-yl)propanamide]
5.2 | Cc1cc2c(C(C)C(=O)NCc3cc(C(F)(F)F)nn3-c3cccc(Cl)c3)cccc2c(C)n1 (stereo not drawn) [Example 67, N-((1-(3-chlorophenyl)-3-(trifluoromethyl)-1H-pyrazol-5-yl)methyl)-2-(1,3-dimethylisoquinolin-5-yl)propanamide]
38.4 | COc1ccc(-n2nc(C(F)(F)F)cc2CNC(=O)Nc2ccc3c(c2)CCC3)cc1 [Example 178, 1-(2,3-dihydro-1H-inden-5-yl)-3-((1-(4-methoxyphenyl)-3-(trifluoromethyl)-1H-pyrazol-5-yl)methyl)urea]
36.3 | O=C(NCc1cc(C(F)(F)F)nn1-c1ccc(C(F)(F)F)cc1)Nc1ccc2c(c1)CCC2 [Example 179, 1-(2,3-dihydro-1H-inden-5-yl)-3-((3-(trifluoromethyl)-1-(4-(trifluoromethyl)phenyl)-1H-pyrazol-5-yl)methyl)urea]
10.8 | Cc1cc2c(NC(=O)NCc3cc(C(F)(F)F)nn3-c3cccc(Cl)c3)cccc2[nH]1 [Example 192, 1-((1-(3-chlorophenyl)-3-(trifluoromethyl)-1H-pyrazol-5-yl)methyl)-3-(2-methyl-1H-indol-4-yl)urea]
0.4 | CC(C(=O)NCc1cc(C(F)(F)F)nn1-c1cccc(Cl)c1)c1cccc2c1CCC2=O (stereo not drawn) [Example 206, N-((1-(3-chlorophenyl)-3-(trifluoromethyl)-1H-pyrazol-5-yl)methyl)-2-(1-oxo-2,3-dihydro-1H-inden-4-yl)propanamide]
22.9 | CC(C(=O)NCc1cc(C(F)(F)F)nn1-c1cccc(Cl)c1)c1ccc2nc(N)sc2c1 (stereo not drawn) [Example 43, 2-(2-aminobenzo[d]thiazol-6-yl)-N-((1-(3-chlorophenyl)-3-(trifluoromethyl)-1H-pyrazol-5-yl)methyl)propanamide]
1.6 | CC(C(=O)NCc1cc(C(C)(C)C)nn1-c1cccc(Cl)c1)c1cc(F)cc2[nH]ncc12 (stereo not drawn) [Example 193, N-((3-tert-butyl-1-(3-chlorophenyl)-1H-pyrazol-5-yl)methyl)-2-(6-fluoro-1H-indazol-4-yl)propanamide]
33.5 | CCCCCn1nc(C(F)(F)F)cc1CNC(=O)C(C)c1cccc2[nH]ncc12 (stereo not drawn) [Example 199, 2-(1H-indazol-4-yl)-N-((1-pentyl-3-(trifluoromethyl)-1H-pyrazol-5-yl)methyl)propanamide]
